Literature values, collected in US20230115209A1, “[…] PSILOCIN CONTAINING COMPOSITIONS AND METHODS OF USING AND MAKING THE SAME” (Orthogonal Thinker, Inc., priority 2020, published 2023).

Tests used:
[1] = trace fear conditioning
[2] = in vivo

CN(C)CCc1c[nH]c2cccc(OP(=O)(O)O)c12 [Psilocybin, 4-phosphoryloxy-N,N-dimethyl-tryptamine]
extinction of the classically conditioned fear response [1]: facilitates extinction of the classically conditioned fear response | global neural signal diversity [2]: increase global neural signal diversity
